pEC50, pIC50: −log10 of the molar value.
Key:
zebrafish embryos = assay: Zebrafish response (anaesthesia) assay, touch response/swim behaviour; type: in vivo; details: Danio rerio, 1.5 h; complete anaesthesia (scale 1) in 50% of AB wild type embryos (54 hpf), 90 min at 28° C.
Source text: Briefly, the ZEA assay involves applying essential oils, fractions or individual compounds to developmentally staged zebrafish embryos followed by monitoring of embryonic touch response/swim behaviour and evaluation of the dose response relationship for each substance. Using a four point scale to describe the embryonic behaviours (Table 4), initial analysis focused on monitoring and recording these changes and evaluating the level of bioactivity. The effective concentration to generate complete anaesthesia in 50% of the embryos (EC50), were evaluated as follows:
Compounds are tested on developmentally staged AB “wild type” zebrafish embryos (54 hpf+/−2 hpf) at concentrations ranging between 10 and 400 μM.
Each compound is diluted in a 95% ethanol or DMSO carrier to create a working stock solution from which appropriate dilutions are made in standard embryo E3 media.
1000 μl of each concentration or appropriate carrier control are added to 10 wild type AB embryos in a single well of a 24 well plate, in duplicate.
The embryos are incubated for 90 min at 28° C. (optimal temperature for embryonic growth) in the diluted compound.
A four point scale (Table 4) is used to evaluate the touch response and swim behaviour for each embryo in all wells.
The effectiveness of the compound will be based on its ability to generate complete anaesthesia (scale: 1) in 50% of the embryos at a given concentration (EC50).
The EC50 values are calculated using GraphPad Prism® software to analyze the log (dose) response curves.

[1] = system: voltage-gated Na+ channels; assay: Sodium (Na+) channel analysis in rat DRG neurons using whole cell patch-clamp; type: cell-based; details: Na+ currents in isolated rat DRG neurons, 3 min in presence of drug, read-out: IC50 range
Protocol: Isolated DRG neurons were suspended in primary neuron basal media and placed on glass coverslips for incubation in humidified atmosphere of 5% CO2 at 37° C. Coverslips carrying cells was transferred to the bath of an inverted microscope (Zeiss), continuously perfused with oxygenated artificial cerebro-spinal fluid (ACSF) containing (in mM) 124 NaCl, 2.5 KCl, 2 CaCl2, 1 MgSO4, 25 NaHCO3, 1 NaH2PO4, and 10 glucose, at a rate of 2-3 ml/min. Recording of whole-cell membrane currents were made at room temperature. Recording pipette (4-6 MS2) was filled with internal solution containing (in mM) 145 K-gluconate, 5 NaCl, 1 MgCl2, 0.2 EGTA, 10 HEPES, 2 Mg-ATP, 0.1 Na-GTP, and 10 phosphocreatine. To isolate Na^+ currents, DRG neurons were superfused with ACSF containing tetraethylammonium chloride (TEA) 5 mM, cesium chloride (CsCl) 100 μM and cadmium chloride (CdCl) 1 mM, to block potassium and calcium currents. NQ compounds were freshly dissolved in ASCF containing TEA, CsCl and CdCl, prior application via the bath.
For recording Na^+ currents, cells were held at −60 mV before applying a conditioning hyperpolarizing step (50 ms) to −90 mv to reactivate the voltage-gated Na^+ channels. The conditioning pulse was followed by depolarizing (150 ms) test pulses to 50 mV in 10 mV increments. Na^+ currents were recorded in absence, after 3 min in presence of the drugs and after a recovery time of 3 min.

TRPV1 = TRPV1 (Homo sapiens, UniProt Q8NER1); assay: TRPV1 assay, calcium imaging; type: cell-based; details: Ca2+ imaging (Fura-2-AM) after stimulation with 1 μM capsaicin
TRPV1, sequence (Q8NER1 whole entry, species assumed): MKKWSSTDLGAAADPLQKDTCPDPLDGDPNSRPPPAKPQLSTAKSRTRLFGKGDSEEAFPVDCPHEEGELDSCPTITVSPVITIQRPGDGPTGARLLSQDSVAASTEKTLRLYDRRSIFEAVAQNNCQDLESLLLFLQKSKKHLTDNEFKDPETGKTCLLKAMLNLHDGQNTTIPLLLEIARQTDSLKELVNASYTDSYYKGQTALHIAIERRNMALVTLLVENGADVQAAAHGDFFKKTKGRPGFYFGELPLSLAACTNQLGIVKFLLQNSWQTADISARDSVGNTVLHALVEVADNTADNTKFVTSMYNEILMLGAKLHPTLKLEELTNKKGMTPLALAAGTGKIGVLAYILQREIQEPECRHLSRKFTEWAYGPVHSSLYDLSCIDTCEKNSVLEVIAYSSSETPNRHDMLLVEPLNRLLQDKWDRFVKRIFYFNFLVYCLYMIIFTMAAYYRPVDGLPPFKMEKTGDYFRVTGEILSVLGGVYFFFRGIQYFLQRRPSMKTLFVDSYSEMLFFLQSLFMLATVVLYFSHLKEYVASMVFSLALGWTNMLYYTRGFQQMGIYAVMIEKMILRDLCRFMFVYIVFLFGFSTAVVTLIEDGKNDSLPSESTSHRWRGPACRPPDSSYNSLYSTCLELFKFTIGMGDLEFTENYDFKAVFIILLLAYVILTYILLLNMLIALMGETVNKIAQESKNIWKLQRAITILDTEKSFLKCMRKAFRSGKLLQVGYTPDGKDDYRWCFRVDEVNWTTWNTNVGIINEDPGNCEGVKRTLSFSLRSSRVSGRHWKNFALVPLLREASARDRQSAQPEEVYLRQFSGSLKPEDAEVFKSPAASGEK
Protocol: Briefly, cells are seeded into poly-L-lysine-coated, glass-bottom, 24-well plates (1×10^5 cells/well) and incubated overnight under standard culture conditions to achieve the desired confluency. Culture media is removed and cells washed twice with HBS prior to incubation for 15 to 60 min at 37° C. with a labelling mixture comprised of Fura-2-AM and pluronic acid in HBS. Data collection occurs over an eight minute period and follows the same general sequence. Following loading, cells are stimulated by addition of 1 μM of capsaicin agonist for 2 min, after which a concentration series of the test sample (e.g., (0.5, 5, 10, 50 μg/ml) is added and imaging continued for an additional 5 min. Capsazepine (20 μM) serves as a known reference antagonist, while cells that are mock-treated or receive vehicle (e.g., DMSO) alone serve as negative controls. For imaging, plates are placed on the stage of an inverted epifluorescence microscope (e.g. Axiovert 200, Zeiss) equipped with a CCD digital camera (e.g., Axiocam MRm, Zeiss). For each well of the plate, a sequence of image pairs (excitation at 340 nm and 380 nm) are collected to capture intracellular calcium flux. Image sequences are analyzed in Image) (NIH) and average pixel intensities calculated for six representative cells in each test condition to achieve mean fluorescence.

- pIC50 [1]: 3.00 to 4.00
- pIC50 (TRPV1): < 3.26
SMILES: CNC(=O)C=C(C)CCC=C(C)C [NQ 2980, N,3,7-trimethylocta-2,6-dienamide]
- pEC50 (zebrafish embryos): 3.73
